We go through two compounds from US20250120944A1, “ANTIBACTERIAL COMPOSITION” (SEOUL NATIONAL UNIVERSITY R&DB FOUNDATION, priority 2021, published 2025).

Experiment [1] relates to LC3. The experiment in a line: immunoblotting of LC3 in J774A.1 and HeLa cells treated with LPS. Format: cell-based. The note with it: 100 ng/mL, 6 hours. As to the method: (§1) First, J774A.1 macrophages (Korean Cell Line Bank) were cultured in RPMI (Rosewell Park Memorial Institue) supplemented with 10% FBS and 100 units/mL penicillin/streptomycin, and HeLa cells were cultured in Dulbecco's Modified Eagle's Medium (DMEM; Gibco, 10566016) supplemented with 10% FBS and 100 units/mL penicillin/streptomycin. All cell lines were tested negative for mycoplasma using the MycoAlert detection kit (Lonza, LT07-118), and all culture plates and cell lines were maintained in a humidified incubator at 37° C. and 5% CO2.
[…] Mouse monoclonal anti-β62 (Abcam, ab56416, 1: 100,000) was used for immunoblotting, rabbit polyclonal anti-LC3 (Sigma, L7543, 1:40,000) was used for immunoblotting, and anti-rabbit IgG-HRP (Cell Signaling, 7074, 1:10,000) and anti-mouse IgG-HRP (Cell Signaling, 7076, 1:1000) were used as secondary antibodies.
In addition, in order to rule out the possibility that J774A.1 and HeLa cells lack the ability to induce autophagy in response to pathogen invasion, the J774A.1 and HeLa cells of Experimental Example 1-1 were treated with lipopolysaccharide (LPS) (100 ng/mL), a component of the outer membrane of Gram-negative bacteria, as a pathogen-associated molecular pattern (PAMP) for 6 hours, and immunoblotting was performed in the same manner as in Experimental Example 1-1.
A general note: In western blotting, separated proteins are transferred to a membrane and probed.

For experiment [2], the system named is LC3. Kind of experiment: immunoblotting of LC3 in S. typhimurium-infected J774A.1 cells treated with a lysosomal V-ATPase inhibitor. It counts as cell-based. As to conditions: 100 nM, 4 hours. The procedure: as §1
Macrophage J774A.1 and HeLa cells were infected with Salmonella typhimurium, a Gram-negative bacterium, and the expression of LC3 was monitored through immunoblotting. Mouse monoclonal anti-[…] (Abcam, ab56416, 1: 100,000) was used for immunoblotting, rabbit polyclonal anti-LC3 (Sigma, L7543, 1:40,000) was used for immunoblotting, and anti-rabbit IgG-HRP (Cell Signaling, 7074, 1:10,000) and anti-mouse IgG-HRP (Cell Signaling, 7076, 1:1000) were used as secondary antibodies.
The J774A.1 cells of Experimental Example 1-1 were treated with bafilomycin A1 (100 nM), an inhibitor of lysosomal V-ATPase, for 4 hours, and immunoblotting was performed in the same manner as in Experimental Example 1-1. However, there was no difference in the degree of inhibition of LC3-I and LC-II expression even when treated with lysosomal V-ATPase inhibitor (FIG. 1E).

As for lipopolysaccharide [LPS], in the experiment with LC3 [1], the “lipidation of LC3 (LC3-II)” value is on record as “strongly induced” and the “synthesis of LC3 (LC3-I)” value was “strongly induced”. `CO/C1=C\C(C)=C\[C@@H](C)[C@@H](O)[C@@H](C)C/C(C)=C/C=C/[C@H](OC)[C@@H]([C@@H](C)[C@@H](O)[C@H](C)[C@@]2(O)C[C@@H](O)[C@H](C)[C@@H](C(C)C)O2)OC1=O` [bafilomycin A1]: in the experiment on LC3 [2], the “degree of inhibition of LC3-I and LC-II expression” value is listed as “no difference”.
